Experimental data from patent US7063829B2, “Wasp family protein fragments, and use thereof” (Centre National de la Recherche Scientifique, priority 1999, dated 2006).

What was measured:
[1] = tested on: actin polymerisation; assay: Cellular actin polymerisation test with GST-WH2/A beads in cell extracts; assay type: biochemical, human
Description: The GST-WH2/A protein was absorbed onto 500 nm latex beads (Polyscience Inc., 400 Valley Road, Warrington Pa., USA) following the manufacturers' instructions.
Moreover, the components recruited onto the surface of the beads, are targets for tyrosine kinase signalling pathways. Thanks to this in vitro system, it is now possible to study the conditions necessary for actin polymerisation in cells, a process which up to now has not been accessible to direct experimental manipulation.
The cellular actin polymerisation test of the invention has all these characteristics. Beads measuring 200–500 nm can be produced by absorbing purified GST-WH2/A recombinant protein on their surface. […] The beads are then added to extracts prepared from supernatants of lysed cells in culture. The volume of extract necessary for an experiment is of the order of a few microlitres, reducing the cost of the experiment. These extracts have the advantage that they can be produced in a large quantity and stored for a long period, at −80° C. Before the addition of these beads, a fluorescent actin derivative (commercial actin-rhodamine) is added to the extract to make the actin polymerisation visible by epifluorescence microscopy. The actin polymerisation is observed 15 min after the addition of the beads, resulting in an accumulation of fluorescent actin around the beads. […]

[2] = tested on: actin cytoskeleton; details: after some years of use; cited from earlier work
[3] = tested on: actin polymerisation on the surface of GST-WA particles; assay: Inhibition of actin polymerisation induced by GST-WA protein on particles in HeLa extracts; assay type: biochemical, human
Protocol: Inhibition of actin polymerisation induced by GST-WA protein: 10 μm polystyrene particles (Polysciences inc.) are covered to saturation with GST-WA protein according to the manufacturer's protocol. The particles are resuspended to 1% solid in PBS (Phosphate Buffer Saline) and stored on ice. To test the independence of the actin polymerisation mechanism induced by GST-WA we prepared three solutions. Each sample contained 15 μl of HeLa extracts (supplemented with ATP, creatine phosphate and actin marked with rhodamine), 0.5 μl of GST-WA particles and 1.5 μl of PBS (A), or 1.5 μl of GST-WA protein at 1 mg/ml (B) or 1.5 μl of GST-PRO protein (PRO corresponding to the fragment delimited by the amino acids situated at positions 235 to 584 of the ActA protein of Listeria monocytogenes) at 1 mg/ml (C). 6 μl of the final mixture of these three solutions were sealed between slide and coverglass. We observed fluorescence (rhodamine actin) around the particles for thirty minutes and measured the intensity of fluorescence on a population of forty beads using a microscope (Leica) and a linear digital camera (Micromax Princeton instrument). The average intensity M (arbitrary unit) was 95,000±13,000 for sample A (positive control). For sample B, M=0±1000, the actin polymerisation on the surface of the particles was inhibited by the addition of GST-WA in solution. […]

C=C1[C@@H](C)[C@H]2[C@H](Cc3ccccc3)NC(=O)[C@]23[C@H](OC(C)=O)/C=C/[C@@](C)(O)C(=O)[C@@H](C)C/C=C/[C@H]3[C@@H]1O [cytochalasin D]
sensitivity of the screening test to known medicaments inhibiting actin polymerisation [1]: sensitive

latrunculin
sensitivity of the screening test to known medicaments inhibiting actin polymerisation [1]: sensitive

CCCC(CCC)C(=O)O [valproic acid]
teratogenic properties due to secondary effects on the actin cytoskeleton [2]: teratogenic properties

B1: GST-WA: recombinant fusion of GST, WH2/A domain of human WASP (positions 404-502, SEQ ID NO: 4) and myc9E10 epitope (protein)
chain: PSSGNGPAPPPLPPALVPAGGLAPGGGRGALLDQIRQGIQLNKTPGAPESSALQPPPQSSEGLVGALMHVMQKRSRAIHSSDEGEDQAGDEDEDDEWDDEQKLISEEDL
modifications: left off: a dimerising Fc or GST
average intensity M of fluorescence (rhodamine actin) around the particles ([3]; 1.5 μl protein at 1 mg/ml added to 15 μl HeLa extracts + 0.5 μl GST-WA particles (10 μm polystyrene), thirty minutes, forty beads, PBS control (sample A) 95,000±13,000): 0±1000 arbitrary unit | actin polymerisation on the surface of the particles after addition of the protein in solution ([3]; protein at 1 mg/ml in solution, HeLa extracts, GST-WA particles): inhibited
